From US12642773B2, “Coated drug compositions and methods of preparing the same” (Applied Materials, Inc., priority 2020, dated 2026)
Values after ≈ are worked out from the molar mass of the structure shown.

Assay: Solubility of ezetimibe
Format: physicochemical
Excerpt: Crystallization decreases the solubility of ezetimibe. […] In contrast, the release rate from coated 50% drug loading ASD particles barely changed.

Row | solubility | SMILES
1 | 0.8 ± 0.3 µg/mL (≈ 1.95 µM) | O=C1[C@H](CC[C@H](O)c2ccc(F)cc2)[C@@H](c2ccc(O)cc2)N1c1ccc(F)cc1 [crystalline ezetimibe, ezetimibe]
2 | 20.2 ± 0.4 µg/mL (≈ 49.3 µM) | O=C1[C@H](CC[C@H](O)c2ccc(F)cc2)[C@@H](c2ccc(O)cc2)N1c1ccc(F)cc1 [amorphous ezetimibe, ezetimibe]
